According to patent US8778927B2, “Smoothened antagonism for the treatment of hedgehog pathway-related disorders” (Novartis AG, priority 2008, dated 2014):
“And” between values parts separate entries of the source, which are not always exact repeats. Equal entries are not always repeated. “Also recorded” adds a separate entry of the source.

Legend:
[1] = tested on: Ptch+/−Hic+/− medulloblastoma allograft; experiment: combination of Smo inhibitor and PI3K inhibitor in Ptch+/−Hic+/− medulloblastoma allograft model; assay type: in vivo, mouse
Text: Mouse medulloblastoma cells (1.0-5.0×10^6), dissociated directly from tumor fragments originally derived from spontaneously arising medulloblastomas in Ptch+/-p53-/-, Ptch+/-Hic+/- or Ptch+/- mice, were inoculated subcutaneously into the right flank of Harlan nu/nu mice. Treatment was initiated approximately 7-10 days post implantation. Animals were randomized into treatment groups with similar mean tumor volumes that ranged from approximately 250-300 mm3. Tumor volumes (mm3) and body weights (g) were recorded two or three times per week from all groups for analysis. Dose was body weight adjusted at time of dosing. Comparisons between treatment groups was performed using a non-parametric Kruskal-Wallis/Wilcoxon Rank Sum Test. Tumors were calipered in two dimensions, and the volumes were calculated using the formula: (length×width2)/2, where length is the longer of the two measurements and width is the shorter one. […] A partial responder (PR) was defined as an animal whose tumor was less than 50% of the initial tumor volume by the end of the study. An animal with no palpable tumor by the end of study is defined as a complete responder (CR). Next, a combination of Compound 1 and Compound A was explored in the Ptch+/-Hic+/- medulloblastoma allograft model. […] Animals treated with vehicle control and with compound A had to be sacrificed around day 20 and 25, respectively, because their tumor volume reached 1500 mm3. […] Similar results were obtained for animals treated with Compound 1 alone for the first 10 days, followed by single agent treatment with Compound A (data not shown). […] Next, a combination of Compound 1 and Compound B was explored in the Ptch+/-Hic+/- medulloblastoma allograft model. […] Animals treated with vehicle control and with compound B reached the endpoint around day 12 to 15, respectively, because their tumor volume reached 700 mm3.

[2] = tested on: resistant medulloblastoma tumor cells; experiment: ex-vivo medulloblastoma proliferation assay (3H thymidine, 48 h), resistant tumor cells; assay type: cell-based, mouse
Procedure: (§1) The effect of statins (e.g., simvastatin, flustatin) on the proliferation of medulloblastoma cells derived from sensitive and resistant Ptch+/− cells was evaluated by using an “ex-vivo medulloblastoma proliferation assay.” Using Ptch+/−p53−/−, Ptch+/−Hic+/− or Ptch+/− medulloblastoma tumors freshly harvested from allografted nude mice, we have developed a short-term 48 h proliferation assay that enables us to assess the in vitro potency of Smo inhibitors. The read-out for proliferation uses incorporation of 3H thymidine. The assay reflects the in vivo sensitivity of tumor cells to Compound 1.
(§2) The effect of PI3K inhibitors (e.g., compounds such as Compound A) on the proliferation of medulloblastoma cells derived from sensitive and resistant medulloblastoma cells was evaluated by using an “ex-vivo medulloblastoma proliferation assay,” as described above.

[3] = tested on: sensitive medulloblastoma tumor cells; experiment: ex-vivo medulloblastoma proliferation assay (3H thymidine, 48 h), sensitive tumor cells; assay type: cell-based; conditions: Mus musculus, Sensitive tumor, Table 3
Procedure: as §1, §2

[4] = tested on: Ptch+/−p53−/− medulloblastoma allograft; experiment: Ptch+/−p53−/− medulloblastoma allograft model, continuous dosing; assay type: in vivo, mouse; conditions: 100 mg/kg bid, 25 days, FIG. 1
Text: (§3) Mouse medulloblastoma cells (1.0−5.0×10^6), dissociated directly from tumor fragments originally derived from spontaneously arising medulloblastomas in Ptch+/−p53−/−, Ptch+/−Hic+/− or Ptch+/− mice, were inoculated subcutaneously into the right flank of Harlan nu/nu mice. Treatment was initiated approximately 7-10 days post implantation. Animals were randomized into treatment groups with similar mean tumor volumes that ranged from approximately 250-300 mm3. Tumor volumes (mm3) and body weights (g) were recorded two or three times per week from all groups for analysis. Dose was body weight adjusted at time of dosing. Comparisons between treatment groups was performed using a non-parametric Kruskal-Wallis/Wilcoxon Rank Sum Test.
Tumors were calipered in two dimensions, and the volumes were calculated using the formula: (length×width2)/2, where length is the longer of the two measurements and width is the shorter one. Percent treatment/control (% T/C) values were calculated using the following formula: % T/C=100×ΔTf−i/ΔCf−i if ΔTf−i>0, % T/T0=100×ΔTf−i/T0 if ΔTf−i<0 (regression). A partial responder (PR) was defined as an animal whose tumor was less than 50% of the initial tumor volume by the end of the study. An animal with no palpable tumor by the end of study is defined as a complete responder (CR). […]

[5] = tested on: Ptch+/− medulloblastoma allograft; experiment: Ptch+/− medulloblastoma allograft model, continuous dosing; assay type: in vivo, mouse; conditions: 100 mg/kg bid, day 48
Text: as §3
(§4) Tumors were calipered in two dimensions, and the volumes were calculated using the formula: (length×width2)/2, where length is the longer of the two measurements and width is the shorter one. Percent treatment/control (% T/C) values were calculated using the following formula: % T/C=100×ΔTf−i/ΔCf−i if ΔTf−i>0, % T/T0=100×ΔTf−i/T0 if ΔTf−i<0 (regression). A partial responder (PR) was defined as an animal whose tumor was less than 50% of the initial tumor volume by the end of the study. An animal with no palpable tumor by the end of study is defined as a complete responder (CR).
Treatments started on day 7 post implantation (5 million cells/animal). Compound 1 was administered po at 10 mg/kg qd, 20 mg/kg qd, 40 mg/kg qd, 80 mg/kg qd and 160 mg/kg qd for the length of study. Compound 2 was administered at 100 mg/kg bid for the length of study. Vehicle control of Compound 1 was 0.5% methylcellulose 0.5% Tween 80 in water. The initial group size consisted of 8 animals. The vehicle group was taken down 7 days after treatment (tumors greater than 10% of mouse body weight). Similar resistance was seen to that observed with the Ptc+/−Hic+/− model, with a subset of the complete responders growing back and others showing complete regression (Table 2). Sustained regression listed in Table 2 represent number of complete regressions still present at the end of study on day 48.

[6] = tested on: Ptch+/−Hic+/− medulloblastoma allograft; experiment: Ptch+/−Hic+/− medulloblastoma allograft model, continuous dosing; assay type: in vivo, mouse; conditions: for number of sustained complete regressions: dosed day 10 to day 56, day 56
Text: as §3, §4
Treatments started on day 7 post implantation (5 million cells/animal). Compound 1 was administered po at 5 mg/kg bid, 10 mg/kg bid, 20 mg/kg qd, 20 mg/kg bid, 40 mg/kg bid and 80 mg/kg bid for the length of study. Compound 2 was administered at 100 mg/kg bid for the length of study. Vehicle control of Compound 1 was 0.5% methylcellulose 0.5% Tween 80 in water. The initial group size consisted of 8 animals. The vehicle group was taken down 10 days after treatment (tumors greater than 10% of mouse body weight).
Sustained regressions listed in the Table 1 represent number of complete responses still present at the end of study on day 47.
Two additional Smo inhibitors, Compound 3 and Compound 4 were evaluated in follow-up studies in the Ptch+/−Hic+/− model upon continous dosing.

[7] = tested on: Akt and S6 phosphorylation; experiment: Western blot of ex-vivo medulloblastoma assay; assay type: cell-based, mouse; conditions: sensitive and resistant cells, FIG. 5
[8] = Mus musculus, Resistant tumor, Table 3

Cn1c(=O)n(-c2ccc(C(C)(C)C#N)cc2)c2c3cc(-c4cnc5ccccc5c4)ccc3ncc21 [Compound B, 2-methyl-2-[4-(3-methyl-2-oxo-8-quinolin-3-yl-2,3-dihydro-imidazo[4,5-c]quinolin-1-yl)-phenyl]-propionitrile]
effect on tumor growth ([1]; 40 mg/kg qd, FIG. 7A): no effect on tumor growth compared to vehicle control | time to endpoint (tumor volume >700 mm3) ([1]; 40 mg/kg qd, FIG. 7B): ~15 days

CCC(C)(C)C(=O)O[C@H]1C[C@@H](C)C=C2C=C[C@H](C)[C@H](CC[C@@H]3C[C@@H](O)CC(=O)O3)[C@H]21 [Simvastatin, reference compound]
IC50 [2, 8]: 0.004 µM | IC50 [3]: 0.004 µM

COc1cc(OC)cc(C(=O)Nc2ccc(Cl)c(-c3nc4cc(N(C)C)ccc4[nH]3)c2)c1 [Compound 2, N-[4-Chloro-3-(5-dimethylamino-1H-benzoimidazol-2-yl)-phenyl]-3,5-dimethoxy-benzamide, reference compound]
tumor response on continuous dosing [4]: initially caused regression, followed by tumor regrowth | sustained regressions (complete regressions still present at end of study) [5]: 0/8 | sustained regressions (complete responses still present at end of study) ([6]; 100 mg/kg bid po, day 47): 0/8

Nc1cc(C(F)(F)F)c(-c2cc(N3CCOCC3)nc(N3CCOCC3)n2)cn1 [Compound A, 5-(2,6-di-morpholin-4-yl-pyrimidin-4-yl)-4-trifluoromethyl-pyridin-2-ylamine]
IC50 [2, 8]: 0.22 µM | IC50 ([2]; Mus musculus, ptch+/− Hic+/−, Resistant, Table 4): 0.3 µM | IC50 ([2]; ptch+/− Hic+/−, Resistant, Table 4): 0.17 µM and 0.15 µM | inhibition of proliferation, sensitive compared with resistant tumors ([2]; sensitive and resistant tumors): inhibited both sensitive and resistant tumors with similar IC50s | IC50 [3]: 0.2 µM | effect on tumor growth ([1]; 60 mg/kg qd, FIG. 6A): only a moderate effect on tumor growth compared to vehicle control | time to endpoint (tumor volume >1500 mm3) ([1]; 60 mg/kg qd, FIG. 6B): ~25 days | inhibition of Akt and S6 phosphorylation [7]: inhibits Akt and S6 phosphorylation in both sensitive and resistant cells; also recorded: inhibited Akt and S6 phosphorylation both in sensitive and resistant tumors at similar concentrations

Cc1c(Cc2ccccc2)nnc(N2CCN(c3cnc(C(C)(C)O)cn3)[C@H](C)C2)c1C [Compound 3, 2-[(R)-4-(6-Benzyl-4,5-dimethyl-pyridazin-3-yl)-2-methyl-3,4,5,6-tetrahydro-2H-[1,2]bipyrazinyl-5′-yl]-propan-2-ol]
number of sustained complete regressions ([6]; 40 mg/kg bid): 3/8 | number of sustained complete regressions ([6]; 40 mg/kg qd): 0/8 | number of sustained complete regressions ([6]; 60 mg/kg qd): 0/8 | number of sustained complete regressions ([6]; 80 mg/kg qd): 0/8 | number of sustained complete regressions ([6]; 100 mg/kg qd): 3/8 | tumor response on continuous dosing ([6]; follow-up studies, continuous dosing): initially induced tumor regression followed by tumor regrowth in the presence of compound
